Assay results from US9546157B2, “Asymmetric piperidinyl-substituted ureas as medicines” (Helsinn Healthcare SA, priority 2014, dated 2017).

Key:
GHSR1a [1] = target: T1, GHSR1a (Homo sapiens, UniProt Q92847); test: Calcium FLIPR assay, GHSR-1a antagonism (reduction of ghrelin response); format: cell-based; settings: HEK293/GHSR1a cells, ghrelin 10 nM
T1 construct: expressed in transfected cells; host or cells: HEK293
In short: (§1)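 Cells stably carrying human GHSR1a were plated a day ahead, dye-loaded, then given test compound. Agonist activity was the calcium rise over 2 minutes after compound addition at t=20 sec; antagonist activity was the reduction of the response to 10 nM ghrelin added together with compound.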

GHSR1a [2] = target: T1, GHSR1a; test: Calcium FLIPR assay, GHSR-1a agonism; format: cell-based; parameters: Emax: unit not given here; settings: HEK293/GHSR1a cells
In short: as §1

C57BL/6J mice = test: Food intake test in mouse (GHSR1a antagonists); format: in vivo; settings: for inhibition in vivo at 10 mg/kg / inhibition in vivo at 30 mg/kg: Mus musculus; for inhibition in vivo at 30 mg/kg: i.p. 30 mg/kg
In short: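 Male C57BL/6J mice (18-22 g) were fasted overnight (16 h before dosing), then randomized by body weight to vehicle or test agent (n=6 each). Cumulative food intake was measured at 1, 2, 4, 8 and 24 hrs post-dose as premeasured food minus uneaten food.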

[3] = Metabolic Stability (H = Human); format: in vitro ADME
[4] = Metabolic Stability (M = Mouse); format: in vitro ADME
[5] = PO 10 mg/kg + ANA (ANAM) 30 mg/kg mice

T1 sequence (Q92847 whole entry): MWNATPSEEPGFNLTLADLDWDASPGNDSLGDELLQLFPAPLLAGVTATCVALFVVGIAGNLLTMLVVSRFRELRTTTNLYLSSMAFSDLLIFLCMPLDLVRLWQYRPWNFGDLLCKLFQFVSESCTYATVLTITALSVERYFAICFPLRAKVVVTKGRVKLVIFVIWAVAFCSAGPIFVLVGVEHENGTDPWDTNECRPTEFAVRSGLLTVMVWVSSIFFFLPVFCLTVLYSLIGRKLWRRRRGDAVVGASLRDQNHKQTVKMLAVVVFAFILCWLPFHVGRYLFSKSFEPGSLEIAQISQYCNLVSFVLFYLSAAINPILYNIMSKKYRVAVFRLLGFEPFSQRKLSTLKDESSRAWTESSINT

SMILES	IC50 (GHSR1a [1]) [nM]	EC50 (GHSR1a [2]) [nM]	Mouse Food Intake, result in words (C57BL/6J mice; PO, dose not given)	Metabolic Stability H [3]	Metabolic Stability M [4]	inhibition in vivo at 10 mg/kg (C57BL/6J mice; ip, 1 h, i.p. 10 mg/kg) [%]	further results
CC(NC(=O)N(C)C1CCN(C)CC1)c1ccc(-c2ccc(C(N)=O)s2)c(Cl)c1Cl (stereo not drawn) [Compound H0691, 5-(2,3-dichloro-4-(1-(3-methyl-3-(1-methylpiperidin-4-yl)ureido)ethyl)phenyl)thiophene-2-carboxamide]	5	> 30000	not active	High H High M	High H High M	–	inhibition in vivo at 10 mg/kg (C57BL/6J mice; ip, 2 h, i.p. 10 mg/kg): 62%
CC(=O)c1ccc(-c2ccc(C(C)NC(=O)N(C)C3CCN(C)CC3)c(Cl)c2Cl)s1 (stereo not drawn) [Compound H0655, 3-(1-(4-(5-acetylthiophen-2-yl)-2,3-dichlorophenyl)ethyl)-1-methyl-1-(1-methylpiperidin-4-yl)urea]	12	> 30000	–	Medium H Medium M	Medium H Medium M	70	–
CC(NC(=O)N(C)C1CCN(C)CC1)c1ccc(/C=C/c2cccs2)c(Cl)c1Cl (stereo not drawn) [Compound H0767, (E)-3-(1-(2,3-dichloro-4-(2-(thiophen-2-yl)vinyl)phenyl)ethyl)-1-methyl-1-(1-methylpiperidin-4-yl)urea]	37	> 30000	NSE	High H High M	High H High M	88	–
CC(NC(=O)N(C)C1CCN(C)CC1)c1ccc(-c2cncnc2)c(Cl)c1Cl (stereo not drawn) [Compound H0516, 3-(1-(2,3-dichloro-4-(pyrimidin-5-yl)phenyl)ethyl)-1-methyl-1-(1-methylpiperidin-4-yl)urea]	41	> 30000	no effect	High H High M	High H High M	–	inhibition in vivo at 30 mg/kg (C57BL/6J mice; ip, 1 h): 88%
C[C@@H](NC(=O)N(C)C1CCN(C)CC1)c1ccc(-c2cncc(F)n2)c(Cl)c1Cl [Compound H0848, (R)-3-(1-(2,3-dichloro-4-(6-fluoropyrazin-2-yl)phenyl)ethyl)-1-methyl-1-(1-methylpiperidin-4-yl)urea]	432	> 30000	–	Medium	High	–	Mouse Food Intake, result in words (C57BL/6J mice; [5]): PO 10 mg/kg + ANA 30 mg/kg mice: NSE
C#Cc1ccc(C(C)NC(=O)N(C)C2CCN(C)CC2)c(Cl)c1Cl (single isomer, unassigned) [Compound H0677, 3-(1-(2,3-dichloro-4-ethynylphenyl)ethyl)-1-methyl-1-(1-methylpiperidin-4-yl)urea]	5	> 30000	NSE	High	Medium	–	–
CC(NC(=O)N(Cc1ccc(CO)cc1)C1CCN(C)CC1)c1ccc(-c2cn[nH]c2)c(Cl)c1Cl (stereo not drawn) [Compound H0553, 3-(1-(2,3-dichloro-4-(1H-pyrazol-4-yl)phenyl)ethyl)-1-(4-(hydroxymethyl)benzyl)-1-(1-methylpiperidin-4-yl)urea]	7	> 30000	–	Medium	Poor	57	–
CC(NC(=O)N(C)C1CCN(C)CC1)c1ccc(-c2ccsc2)c(Cl)c1Cl (stereo not drawn) [Compound H0498, 3-(1-(2,3-dichloro-4-(thiophen-3-yl)phenyl)ethyl)-1-methyl-1-(1-methylpiperidin-4-yl)urea]	29	> 30000	–	Medium	High	–	inhibition in vivo at 30 mg/kg (C57BL/6J mice; ip, 1 h): 76%
CC(NC(=O)N(C)C1CCN(C)CC1)c1ccc(-c2cncc(F)c2)c(Cl)c1Cl (stereo not drawn) [Compound H0614, 3-(1-(2,3-dichloro-4-(5-fluoropyridin-3-yl)phenyl)ethyl)-1-methyl-1-(1-methylpiperidin-4-yl)urea]	12	> 30000	No IP done, PO: NSE	High H High M	High H High M	–	–
Cc1noc(-c2ccc(C(C)NC(=O)N(C)C3CCN(C)CC3)c(Cl)c2Cl)n1 (stereo not drawn) [Compound H0596, 3-(1-(2,3-dichloro-4-(3-methyl-1,2,4-oxadiazol-5-yl)phenyl)ethyl)-1-methyl-1-(1-methylpiperidin-4-yl)urea]	9	3	–	High H High M	High H High M	–	Mouse Food Intake, result in words (C57BL/6J mice; i.p. 10 mg/kg): NSE (10 mg/kg)
COc1ccc(-c2ccc(C(C)NC(=O)N(C)C3CCN(C)CC3)c(Cl)c2Cl)cn1 (stereo not drawn) [Compound H0511, 3-(1-(2,3-dichloro-4-(6-methoxypyridin-3-yl)phenyl)ethyl)-1-methyl-1-(1-methylpiepridin-4-yl)urea]	98	> 30000	–	Medium H Medium M	Medium H Medium M	–	inhibition in vivo at 30 mg/kg (C57BL/6J mice; ip, 1 h): 94%
CC(NC(=O)N(C)[C@@H]1CCN(C)CC1(C)C)c1ccc(-c2cnccn2)c(Cl)c1Cl (stereo partly drawn) [Compound H0824, 2-(1-(2,3-dichloro-4-(pyrazin-2-yl)phenyl)ethyl)-1-methyl-1-((R)-1,3,3-trimethylpiperidin-4-yl)urea]	3	> 30000	–	High	Medium	–	Mouse Food Intake, result in words (C57BL/6J mice; PO 30 mg/kg + ANA mice): PO 30 mg/kg + ANA mice: NSE
CC(NC(=O)N(C)C1CCN(C)CC1)c1ccc(C#Cc2cccs2)c(Cl)c1Cl (stereo not drawn) [Compound H0737, 3-(1-(2,3-dichloro-4-(thiophen-2-ylethynyl)phenyl)ethyl)-1-methyl-1-(1-methylpiperidin-4-yl)urea]	13	> 30000	NSE	High H High M	High H High M	75	–
CCC(NC(=O)N(C)C1CCN(C)CC1)c1ccc(-c2cnccn2)c(Cl)c1Cl (stereo not drawn) [Compound H0829, 3-(1-(2,3-dichloro-4-(pyrazin-2-yl)phenyl)propyl)-1-methyl-1-(1-methylpiperidin-4-yl)urea]	3	> 30000	–	High H High M	High H High M	–	Mouse Food Intake, result in words (C57BL/6J mice; [5]): PO 10 mg/kg + ANA 30 mg/kg mice: NSE
CC(NC(=O)N(C)C1CCN(C)CC1)c1ccc(C#Cc2nccs2)c(Cl)c1Cl (stereo not drawn) [Compound H0754, 3-(1-(2,3-dichloro-4-(thiazol-2-ylethynyl)phenyl)ethyl)-1-methyl-1-(1-methylpiperidin-4-yl)urea]	11	> 30000	no effect	High H High M	High H High M	74	Mouse Food Intake, result in words (C57BL/6J mice; PO + ANA (ANAM), mice, dose not given): no effect
CC(NC(=O)N(C)C1CCN(C)CC1)c1ccc(-c2cncc(N)c2)c(Cl)c1Cl (stereo not drawn) [Compound H0704, 3-(1-(4-(5-aminopyridin-3-yl)-2,3-dichlorophenyl)ethyl)-1-methyl-1-(1-methylpiperidin-4-yl)urea]	19	> 30000	–	High	Medium	–	inhibition in vivo at 10 mg/kg (C57BL/6J mice; ip, 2 h, i.p. 10 mg/kg): 32%
CN1CCC(N(C)C(=O)NC(c2ccc(-c3cncnc3)c(Cl)c2Cl)C(F)(F)F)CC1 (stereo not drawn) [Compound H0686, 3-(1-(2,3-dichloro-4-(pyrimidin-5-yl)phenyl)-2,2,2-trifluoroethyl)-1-methyl-1-(1-methylpiperidin-4-yl)urea]	14	> 30000	NSE	Medium	High	–	inhibition in vivo at 10 mg/kg (C57BL/6J mice; ip, 2 h, i.p. 10 mg/kg): 61%; inhibition in vivo at 10 mg/kg (C57BL/6J mice; ip, 4 h, i.p. 10 mg/kg): 61%
CC(NC(=O)N(C)C1CCN(C)CC1)c1ccc(-c2cnccn2)c(Cl)c1Cl (stereo not drawn) [Compound H0700, 3-(1-(2,3-dichloro-4-(pyrazin-2-yl)phenyl)ethyl)-1-methyl-1-(1-methylpiperidin-4-yl)urea]	7	> 30000	–	High H High M	High H High M	–	inhibition in vivo at 10 mg/kg (C57BL/6J mice; 1 h, Fed mice, 10 mg/kg): 71%; inhibition in vivo at 10 mg/kg (C57BL/6J mice; ip, 2 h, i.p. 10 mg/kg): 41%
CN1CCC(N(C)C(=O)NC(CC2CC2)c2ccc(-c3cnccn3)c(Cl)c2Cl)CC1 (stereo not drawn) [Compound H0722, 3-(2-cyclopropyl-1-(2,3-dichloro-4-(pyrazin-2-yl)phenyl)ethyl)-1-methyl-1-(1-methylpiperidin-4-yl)urea]	13	> 30000	–	High H High M	High H High M	90	Mouse Food Intake, result in words (C57BL/6J mice; PO 30 mg/kg): NSE
COc1cncc(-c2ccc(C(C)NC(=O)N(C)C3CCN(C)CC3)c(Cl)c2Cl)c1 (stereo not drawn) [Compound H0607, 3-(1-(2,3-dichloro-4-(5-methoxypyridin-3-yl)phenyl)ethyl)-1-methyl-1-(1-methylpiperidin-4-yl)urea]	6	31	–	Medium H Medium M	Medium H Medium M	–	Emax (GHSR1a [2]): 3000; Mouse Food Intake, result in words (C57BL/6J mice; i.p. 10 mg/kg): NSE (10 mg/kg)
